Reference: BindingDB's records for patent US9150581 (Research Triangle Institute, 2015)

Biological target: Isoform Alpha-4-2 of Neuronal acetylcholine receptor subunit alpha-4 (Alpha-4-2) (Rattus norvegicus, UniProt P09483)
Test: Inhibition Assay

Sequence of Isoform Alpha-4-2 of Neuronal acetylcholine receptor subunit alpha-4 (Alpha-4-2) (P09483 as listed by the source): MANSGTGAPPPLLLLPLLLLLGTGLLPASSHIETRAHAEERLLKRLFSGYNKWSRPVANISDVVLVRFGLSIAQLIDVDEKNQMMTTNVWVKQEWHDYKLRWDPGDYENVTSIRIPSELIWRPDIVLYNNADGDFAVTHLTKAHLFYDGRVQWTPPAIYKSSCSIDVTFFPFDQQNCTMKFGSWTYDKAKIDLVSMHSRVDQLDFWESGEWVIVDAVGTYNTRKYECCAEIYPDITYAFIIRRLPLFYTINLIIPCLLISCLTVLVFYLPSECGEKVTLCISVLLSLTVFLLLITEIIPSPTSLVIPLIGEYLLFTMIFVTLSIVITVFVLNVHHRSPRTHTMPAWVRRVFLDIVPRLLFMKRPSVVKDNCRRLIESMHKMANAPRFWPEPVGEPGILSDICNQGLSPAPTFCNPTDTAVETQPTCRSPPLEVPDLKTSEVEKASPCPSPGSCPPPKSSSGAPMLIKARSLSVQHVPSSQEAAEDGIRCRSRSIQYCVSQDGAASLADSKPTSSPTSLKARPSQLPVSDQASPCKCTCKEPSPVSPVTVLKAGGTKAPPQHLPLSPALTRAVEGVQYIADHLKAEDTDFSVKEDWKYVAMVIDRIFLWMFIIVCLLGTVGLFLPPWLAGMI

| SMILES | Ki |
| --- | --- |
| Fc1ncc(C2CC3CCC2N3)cc1-c1cccc(Cl)c1 (racemic) [US9150581, RTI-7527-98] | 73 pM |
| Fc1ncc(C2CC3CCC2N3)cc1-c1ccccc1 (stereo not drawn) [US9150581, RTI-7527-(-)-47] | 260 pM |
